Laboratory results: publication PMC9516332 (Frontiers in Oncology, 2022)
pIC50: −log10 of the molar value. Read-outs that look alike come from different tables or passages of the source.

Experiments:
134 cancer cell lines [1] = test: Cell viability assay (ATPlite, 72 hours), IC50 on cancer cell line panel
134 cancer cell lines [2] = tested on: 134 cancer cell lines
[3] = biological target: panel of 255 wild-type kinases (Homo sapiens, UniProt Q9Y463); test: Kinase panel profiling at 1 µmol/L (MSA or IMAP), percentage inhibition; assay type: biochemical; conditions: kinase DYRK1B; 1 µmol/L single concentration; read-out: %-inhibition at 1 µmol/L, DYRK1B
[4] = biological target: panel of 255 wild-type kinases (Homo sapiens, UniProt P08581); test: as above; assay type: biochemical; conditions: MET; 1 µmol/L single concentration
[5] = biological target: panel of 255 wild-type kinases (Homo sapiens, UniProt P31749); test: as above; assay type: biochemical; conditions: AKT1 kinase assay; 1 µmol/L single concentration; read-out: %-inhibition AKT1
[6] = biological target: T1, panel of 255 wild-type kinases (Homo sapiens, UniProt Q96PF2); test: as above; assay type: biochemical; conditions: kinase TSSK2; 1 µmol/L single concentration; read-out: %-inhibition at 1 µmol/L, TSSK2
T1 sequence (Q96PF2 1-358): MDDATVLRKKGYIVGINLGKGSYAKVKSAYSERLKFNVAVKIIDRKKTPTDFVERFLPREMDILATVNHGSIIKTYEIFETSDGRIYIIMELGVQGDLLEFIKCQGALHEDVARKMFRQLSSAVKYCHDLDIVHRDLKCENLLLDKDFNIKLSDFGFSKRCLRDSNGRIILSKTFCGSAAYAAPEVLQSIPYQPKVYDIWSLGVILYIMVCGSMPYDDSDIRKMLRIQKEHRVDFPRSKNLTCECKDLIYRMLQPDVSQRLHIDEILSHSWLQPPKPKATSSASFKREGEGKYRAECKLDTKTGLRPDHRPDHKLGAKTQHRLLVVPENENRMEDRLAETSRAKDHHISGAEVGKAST

- pIC50 (134 cancer cell lines [1]; Homo sapiens, MeWo, read-out: IC50 in cell proliferation assay, MeWo cell line): < 4.50
- pIC50 (134 cancer cell lines [1]; Homo sapiens, NCCIT, read-out: IC50 in cell proliferation assay, NCC-IT cell line): < 4.50
- pIC50 (134 cancer cell lines [1]; Homo sapiens, NCI-H82, read-out: IC50 in cell proliferation assay, cell line NCI-H82): < 4.50
- pIC50 (134 cancer cell lines [1]; Homo sapiens, NCI-H460, read-out: IC50 in cell proliferation assay, NCI-H460 cell line): < 4.50
- pIC50 (134 cancer cell lines [1]; Homo sapiens, NCI-H661, read-out: IC50 in cell proliferation assay, NCI-H661 cell line): < 4.50
- pIC50 (134 cancer cell lines [1]; Homo sapiens, NCI-H716, read-out: IC50 in cell proliferation assay, cell line NCI-H716 (FGFR2-COL14A1)): < 4.50
- pIC50 (134 cancer cell lines [1]; Homo sapiens, NCI-H1650, read-out: IC50 in cell proliferation assay, NCI-H1650 cell line (EGFR exon19del)): < 4.50
- pIC50 (134 cancer cell lines [1]; Homo sapiens, NCI-H1975, read-out: IC50 in cell proliferation assay, NCI-H1975 cell line (EGFR p.L858R + p.T790M)): < 4.50
- pIC50 (134 cancer cell lines [1]; Homo sapiens, NCI-H2228, read-out: IC50 in cell proliferation assay, NCI-H2228 cell line (EML4-ALK)): < 4.50
- pIC50 (134 cancer cell lines [1]; Homo sapiens, OVCAR-3, read-out: IC50 in cell proliferation assay, cell line OVCAR-3): < 4.50
- pIC50 (134 cancer cell lines [1]; Homo sapiens, PFSK-1, read-out: IC50 in cell proliferation assay, cell line PFSK-1): < 4.50
- pIC50 (134 cancer cell lines [1]; Homo sapiens, RL95-2, read-out: IC50 in cell proliferation assay, cell line RL95-2 (EGFR p.A289V)): < 4.50
- pIC50 (134 cancer cell lines [1]; Homo sapiens, RPMI-7951, read-out: IC50 in cell proliferation assay, cell line RPMI-7951 (BRAF p.V600E)): < 4.50
- pIC50 (134 cancer cell lines [1]; Homo sapiens, RS4-11, read-out: IC50 in cell proliferation assay, cell line RS4;11): < 4.50
- pIC50 (134 cancer cell lines [1]; Homo sapiens, Rec1, read-out: IC50 in cell proliferation assay, cell line REC-1): < 4.50
- pIC50 (134 cancer cell lines [1]; Homo sapiens, SHP77, read-out: IC50 in cell proliferation assay, cell line SHP-77): < 4.50
- pIC50 (134 cancer cell lines [1]; Homo sapiens, SK-BR-3, read-out: IC50 in cell proliferation assay, cell line SK-BR-3 (ERBB2 amplification)): < 4.50
- pIC50 (134 cancer cell lines [1]; Homo sapiens, SK-N-AS, read-out: IC50 in cell proliferation assay, cell line SK-N-AS): < 4.50
- pIC50 (134 cancer cell lines [1]; Homo sapiens, SK-N-FI, read-out: IC50 in cell proliferation assay, cell line SK-N-FI): < 4.50
- pIC50 (134 cancer cell lines [1]; Homo sapiens, SK-N-MC, read-out: IC50 in cell proliferation assay, cell line SK-N-MC): < 4.50
- pIC50 (134 cancer cell lines [1]; Homo sapiens, SK-N-SH, read-out: IC50 in cell proliferation assay, cell line SK-N-SH (ALK p.F1174L)): < 4.50
- pIC50 (134 cancer cell lines [1]; Homo sapiens, SNU-5, read-out: IC50 in cell proliferation assay, cell line SNU-5 (MET amplification)): < 4.50
- pIC50 (134 cancer cell lines [1]; Homo sapiens, SNU-16, read-out: IC50 in cell proliferation assay, cell line SNU-16 (FGFR2 amplification)): < 4.50
- pIC50 (134 cancer cell lines [1]; Homo sapiens, SNU-C2B, read-out: IC50 in cell proliferation assay, cell line SNU-C2B (EGFR p.R165Q)): < 4.50
- pIC50 (134 cancer cell lines [1]; Homo sapiens, SU-DHL-1, read-out: IC50 in cell proliferation assay, cell line SU-DHL-1 (NPM1-ALK)): < 4.50
- pIC50 (134 cancer cell lines [1]; Homo sapiens, SU-DHL-6, read-out: IC50 in cell proliferation assay, cell line SU-DHL-6): < 4.50
- pIC50 (134 cancer cell lines [1]; Homo sapiens, SUP-T1, read-out: IC50 in cell proliferation assay, cell line SUP-T1): < 4.50
- pIC50 (134 cancer cell lines [1]; Homo sapiens, SW48, read-out: IC50 in cell proliferation assay, cell line SW48 (EGFR p.G719S)): < 4.50
- pIC50 (134 cancer cell lines [1]; Homo sapiens, SW480, read-out: IC50 in cell proliferation assay, cell line SW480): < 4.50
- pIC50 (134 cancer cell lines [1]; Homo sapiens, SW626, read-out: IC50 in cell proliferation assay, cell line SW626): < 4.50
- pIC50 (134 cancer cell lines [1]; Homo sapiens, SW780, read-out: IC50 in cell proliferation assay, cell line SW780 (FGFR3-BAIAP2L1)): < 4.50
- pIC50 (134 cancer cell lines [1]; Homo sapiens, SW837, read-out: IC50 in cell proliferation assay, cell line SW837): < 4.50
- pIC50 (134 cancer cell lines [1]; Homo sapiens, SW872, read-out: IC50 in cell proliferation assay, cell line SW872 (BRAF p.V600E)): < 4.50
- pIC50 (134 cancer cell lines [1]; Homo sapiens, SW900, read-out: IC50 in cell proliferation assay, cell line SW900): < 4.50
- pIC50 (134 cancer cell lines [1]; Homo sapiens, SW948, read-out: IC50 in cell proliferation assay, cell line SW948): < 4.50
- pIC50 (134 cancer cell lines [1]; Homo sapiens, SW982, read-out: IC50 in cell proliferation assay, cell line SW982 (BRAF p.V600E)): < 4.50
- pIC50 (134 cancer cell lines [1]; Homo sapiens, SW-620, read-out: IC50 in cell proliferation assay, cell line SW620): < 4.50
- pIC50 (134 cancer cell lines [1]; Homo sapiens, T98G, read-out: IC50 in cell proliferation assay, cell line T98G): < 4.50
- pIC50 (134 cancer cell lines [1]; Homo sapiens, TCC-SUP, read-out: IC50 in cell proliferation assay, cell line TCCSUP): < 4.50
- pIC50 (134 cancer cell lines [1]; Homo sapiens, THP-1, read-out: IC50 in cell proliferation assay, cell line THP-1): < 4.50
- pIC50 (134 cancer cell lines [1]; Homo sapiens, U2OS, read-out: IC50 in cell proliferation assay, cell line U2OS): < 4.50
- pIC50 (134 cancer cell lines [1]; Homo sapiens, U-87 MG, read-out: IC50 in cell proliferation assay, cell line U-87MG ATCC): < 4.50
- pIC50 (134 cancer cell lines [1]; Homo sapiens, U-118-MG, read-out: IC50 in cell proliferation assay, cell line U-118MG): < 4.50
- pIC50 (134 cancer cell lines [1]; Homo sapiens, UMUC3, read-out: IC50 in cell proliferation assay, cell line UM-UC-3): < 4.50
- pIC50 (134 cancer cell lines [1]; Hs766T, read-out: IC50 in cell proliferation assay, Hs 766T cell line): < 4.50
- pIC50 (134 cancer cell lines [1]; L-82, read-out: IC50 in cell proliferation assay, L-82 cell line (NPM1-ALK)): < 4.50
- pIC50 (134 cancer cell lines [1]; Rh30, read-out: IC50 in cell proliferation assay, cell line Rh30): < 4.50
- pIC50 (134 cancer cell lines [1]; read-out: IC50 in cell proliferation assay, 11-18 cell line (EGFR p.L858R)): < 4.50
- pIC50 (134 cancer cell lines [1]; read-out: IC50 in cell proliferation assay, Hs 852.T cell line): < 4.50
- pIC50 (134 cancer cell lines [1]; read-out: IC50 in cell proliferation assay, JAR cell line): < 4.50
- pIC50 (134 cancer cell lines [1]; read-out: IC50 in cell proliferation assay, cell line 5637): < 4.50
- pIC50 (134 cancer cell lines [1]; read-out: IC50 in cell proliferation assay, cell line A-388): < 4.50
- pIC50 (134 cancer cell lines [1]; read-out: IC50 in cell proliferation assay, cell line DB): < 4.50
- pIC50 (134 cancer cell lines [1]; read-out: IC50 in cell proliferation assay, cell line DEL (NPM1-ALK)): < 4.50
- pIC50 (134 cancer cell lines [1]; read-out: IC50 in cell proliferation assay, cell line ES-2 (BRAF p.V600E)): < 4.50
- pIC50 (134 cancer cell lines [1]; read-out: IC50 in cell proliferation assay, cell line PA-1): < 4.50
- pIC50 (134 cancer cell lines [1]; read-out: IC50 in cell proliferation assay, cell line PC-3): < 4.50
- pIC50 (134 cancer cell lines [1]; read-out: IC50 in cell proliferation assay, cell line RD): < 4.50
- pIC50 (134 cancer cell lines [1]; read-out: IC50 in cell proliferation assay, cell line RKO (BRAF p.V600E)): < 4.50
- pIC50 (134 cancer cell lines [1]; read-out: IC50 in cell proliferation assay, cell line RL): < 4.50
- pIC50 (134 cancer cell lines [1]; read-out: IC50 in cell proliferation assay, cell line RT-4 (FGFR3-TACC3)): < 4.50
- pIC50 (134 cancer cell lines [1]; read-out: IC50 in cell proliferation assay, cell line SR (NPM1-ALK)): < 4.50
- pIC50 (134 cancer cell lines [1]; read-out: IC50 in cell proliferation assay, cell line T24): < 4.50
- pIC50 (134 cancer cell lines [1]; read-out: IC50 in cell proliferation assay, cell line TT (RET p.C634W)): < 4.50
- pIC50 (134 cancer cell lines [1]; read-out: IC50 in cell proliferation assay, cell line VA-ES-BJ): < 4.50
- pIC50 (134 cancer cell lines [2]): < 4.50
- inhibition at 1 µM [3]: 6%
- inhibition at 1 µM [4]: -4%
- inhibition at 1 µM [5]: -15%
- inhibition at 1 µM [6]: -0.476%
Structure (SMILES): O=C(Nc1cnn2ccc(N3CCC[C@@H]3c3cc(F)ccc3F)nc12)N1CC[C@H](O)C1 [larotrectinib]
